pEC50: −log10 of the molar value. “And” between values parts separate entries of the source, which are not always exact repeats. Identical values can stand only once. Like-named read-outs stand apart in the source and are kept apart here.

Here are results for four compounds from patent publication US20090227470A1, “SELECTION OF BIOCATALYSTS FOR CHEMICAL SYNTHESIS” (priority 2005, published 2009).

Data set [1] concerns DH10B-pVSF2-tet^r/pCom10-XylC (benzaldehyde dehydrogenase XylC from Pseudomonas putida). Nature of the data set: Plate-based assay for tetracycline resistance, biocat-selector strain with XylC substrates. Type of data set: cell-based, Escherichia coli. To be noted: for pEC50: Escherichia coli, read-out: substrate concentration required for half-maximal colony diameter, cells containing XylC, selective plates, estimated from inverse plots of FIG. 4. An excerpt: Plasmid pCom10-XylC was re-introduced into DH10B-pVSF2-tet^r to produce the desired biocat-selector strain DH10B-pVSF2-tet^r/pCom10-XylC. This strain grew on tetracycline containing selective plates only after addition of benzaldehyde or 2-hydroxybenzaldehyde.

The subject of data set [2] is DH10B-pVSF2-lacZ/pCom10-XylC (benzaldehyde dehydrogenase XylC from Pseudomonas putida). Nature of the data set: Plate-based assay for β-galactosidase activity, biocat-reporter strain with XylC substrates. Conditions: plates with chloramphenicol, kanamycin, X-Gal; decane vapor to induce XylC.
Method: Cells were plated and grown as above, under decane vapor, followed by incubation at 4° C. and testing for blue colony color as above.
Strain DH10B-pVSF2-lacZ was transformed with pCom10-XylC, streaked on plates containing chloramphenicol, kanamycin, X-Gal and varying concentrations of benzaldehyde or 2-hydroxybenzaldehyde, and grown exposed to decane vapor to induce XylC. Strain DH10B-pVSF2-lacZ, carrying an empty pCom10 vector served as control.
The target in a further data set is NahR variant (Pseudomonas putida, UniProt P10183, N169D). Conditions: reported by de Lorenzo and coworkers (Cebolla et al., 1997); cited from earlier work.
For data set [3], the system named is DH10B-pVSF2-lacZ (NahR mutant, salicylate promoter Psal fused to lacZa). To be noted: plates with chloramphenicol and X-Gal, 36 h at 30° C.
Method: E. coli DH10B cells harbouring reporter plasmid pVSF2-lacZ were streaked on the plates from a liquid culture that had been grown at 30° C. to an OD600 of 0.1. Cells were grown for 36 h at 30° C. followed by incubation at 4° C. for 24 h after which blue colony color formation was evaluated visually.
Data set [4] deals with DH10B-pVSF2-tet^r (NahR mutant, Psal fused to tetA).
Method: (§1) Each plate assay was conducted in triplicate and growth was determined by measuring the colony diameter of 10 solitary colonies for each plate.
(§2) We compared the sensitivity of the selector host for substrates and products by plotting the data of FIGS. 3 and 4 as inverse plots of 1/[colony diameter] vs 1/[compound] and estimating the concentration required for half maximal colony size.
In a further data set the test system is E. coli cell membranes. Nature of the data set: Passive diffusion across the cell envelope. Type of data set: in vitro ADME. Conditions: for diffusion rate across E. coli cell membranes: estimated from studies of toluene oxidation by E. coli hosts containing xylMA. An excerpt: This can be considered to be due to differences in the transport of benzaldehyde and benzoate through the E. coli cell envelope. Such transport is believed to involve only passive diffusion^21,22. […].
Thus, substrate influx and product efflux, though different, are quite rapid. […]

In data set [5] the test system is DH10B-pVSF2-tet^r (NahR mutant, Psal fused to tetA). Kind of data set: microbe, parasite or virus in culture. To be noted: Escherichia coli, read-out: concentration required for half maximal colony size (colony diameter 50% of maximum), product added extracellularly, selective plates; estimated from inverse plots of FIG. 3.
Method: as §1, §2

NahR variant, sequence (P10183 whole entry N169D, the tested form may be a part): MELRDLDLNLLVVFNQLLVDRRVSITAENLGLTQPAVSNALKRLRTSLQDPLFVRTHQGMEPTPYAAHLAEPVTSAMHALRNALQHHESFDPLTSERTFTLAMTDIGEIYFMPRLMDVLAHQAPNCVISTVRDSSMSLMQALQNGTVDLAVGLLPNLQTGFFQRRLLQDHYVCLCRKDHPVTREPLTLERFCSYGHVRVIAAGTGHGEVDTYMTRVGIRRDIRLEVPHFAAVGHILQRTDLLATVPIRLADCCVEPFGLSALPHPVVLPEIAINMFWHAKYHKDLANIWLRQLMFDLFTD

Turning to `O=Cc1ccccc1O` [2-hydroxybenzaldehyde], the pEC50 in data set [1] was around 6.52. Further, in data set [2], the “substrate concentration above which blue colonies were formed” value was “above 25 μM”.

On to `O=C(O)c1ccccc1O` [2-hydroxybenzoate], for which the “affinity of the NahR chemosensor, times greater than for benzoate” value at NahR variant was 10. In data set [3], the “concentration above which blue colonies were detected” value is on record as “higher than 10 μM” and the “saturating concentration for blue colony formation” value was around 100 µM. The “fold more effective than the parent compound in triggering tetracycline resistance” value in data set [4] (2-hydroxy substituted vs unsubstituted compound) was 15-20. Moreover, the pEC50 in data set [4] (read-out: concentration required for half maximal colony size (colony diameter 50% of maximum), product added extracellularly, selective plates, estimated from inverse plots of FIG. 3) was ~4.70 and 4.70. Further, in data set [4] (selective media with tetracycline), the “minimum concentration at which colonies were formed” value is 10 µM. The “concentration at which smaller and also fewer colonies were observed” value in data set [4] (selective plates with tetracycline) is 10 µM.

In the case of `O=Cc1ccccc1` [benzaldehyde], the pEC50 in data set [1] was around 5.22. For the same compound, the “concentration giving homogeneous growth” value in data set [1] (host with higher tetracycline tolerance, selective conditions) was around 100 µM. In the data set on E. coli cell membranes, the “time for intracellular and extracellular concentrations to equilibrate” value was “a few seconds”; the “diffusion rate across E. coli cell membranes” value is given as “exceed 180 μmol/min/g cell dry mass”. Moreover, the “substrate concentration above which blue colonies were formed” value in data set [2] is listed as “above 50 μM”.

With `O=C(O)c1ccccc1` [benzoate], the pEC50 in data set [5] was around 3.40. In the data set on E. coli cell membranes, the “time for intracellular and extracellular concentrations to equilibrate” value is recorded as “one minute”; the “diffusion rate across E. coli cell membranes” value was above 10 μmol/min/g cell dry mass.
